In ChEMBL document CHEMBL3351815, “Synthesis of fluorinated agonist of sphingosine-1-phosphate receptor 1” (Bioorg Med Chem, 2014) one finds Activity, IC50 and inhibition data, which are given here for three compounds.

Active and inactive are the calls of the source. No cut-off for these calls is given here.

Assay [1] has as its target Sphingosine 1-phosphate receptor 1 (Homo sapiens) (UniProt P21453). The experiment in a line: Agonist activity at S1P receptor in human PC3 cells assessed as increase in proliferation at 100 nM after 24 hrs by [3H]-thymidine incorporation assay. The format is cell-based. As to conditions: PC-3. In general terms: Dividing cells build labelled thymidine or BrdU into new DNA.

Assay [2] shares this target. The assay can be described thus: Agonist activity at S1P receptor in human C4-2B cells assessed as increase in proliferation at 100 nM after 24 hrs by [3H]-thymidine incorporation assay. In kind it is cell-based.
Assay [3] is described as follows: Antiproliferative activity against human PC3 cells assessed as reduction in proliferation after 24 hrs by [3H]-thymidine incorporation assay. The format is functional, cell-based. As to conditions: PC-3.
The nature of assay [4]: Antiproliferative activity against human C4-2B cells assessed as reduction in proliferation after 24 hrs by [3H]-thymidine incorporation assay. The format is functional, cell-based. As to conditions: LNCaP C4-2B.
For assay [5], the system named is PC-3. The experiment in a line: Antiproliferative activity against human PC3 cells assessed as reduction in proliferation at 1 to 10 uM after 24 hrs by MTT assay. In kind it is functional, cell-based.
Assay [6] deals with LNCaP C4-2B. The experiment in a line: Antiproliferative activity against human C4-2B cells assessed as reduction in proliferation at 1 to 100 uM after 24 hrs by MTT assay. The format is functional, cell-based. On the technique in general: Formazan colour is commonly taken as a measure of viable cells.

Sphingosine 1-phosphate receptor 1 (Homo sapiens), sequence (P21453 whole entry): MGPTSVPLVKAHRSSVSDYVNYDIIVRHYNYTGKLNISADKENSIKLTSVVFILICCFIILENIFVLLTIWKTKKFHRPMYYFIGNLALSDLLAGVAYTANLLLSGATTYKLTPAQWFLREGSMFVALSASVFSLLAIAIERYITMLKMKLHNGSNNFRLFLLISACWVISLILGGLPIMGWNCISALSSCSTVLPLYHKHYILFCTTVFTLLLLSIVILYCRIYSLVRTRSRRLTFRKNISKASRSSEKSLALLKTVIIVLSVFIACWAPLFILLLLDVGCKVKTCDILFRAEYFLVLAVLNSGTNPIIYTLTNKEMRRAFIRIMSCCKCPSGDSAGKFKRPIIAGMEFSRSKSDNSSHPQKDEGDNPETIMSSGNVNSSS

`CCCCCCCCc1ccc(CCC(N)CC(F)(F)P(=O)(O)O)cc1` (stereo not given): the result in assay [1] and in assay [2] was inactive. In addition, the figures for the IC50 in assay [3] and in assay [4] were 20 µM and 3 µM, respectively. In addition, the inhibition result in assay [5] and in assay [6] was “Active” each time.
As to `CCCCCCCCCCCCC/C=C/[C@@H](O)[C@@H](N)COP(=O)(O)O`, the outcome in assay [1] and in assay [2] was Active.
In the case of `CCCCCCCCc1ccc(CCC(N)(CO)COP(=O)(O)O)cc1` (stereo not given), the outcome in assay [1] and in assay [2] was Active.

The term IC50 denotes the midpoint of a concentration-inhibition curve.
